Measured values from patent US20180360799A1, “Nitrofuran Derivatives That Induce Apoptosis in Breast Cancer Cells by Activating Protein Expression” (Oklahoma Medical Research Foundation, priority 2015, published 2018).

Legend:
[1] = test system: HCC-1806 cells; experiment: Cell viability, CellTiter-Glo, HCC-1806; format: cell-based; conditions: Homo sapiens, HCC1806, 72 h; Table 2; cancer cell viability, 3 d treatment; read-out: HCC-1806 IC50
Method: (§1) Given the known functions of CHOP in ER stress-induced apoptosis^16, 17 and in regulating cancer cell death,^6, 19, 20 the inventor investigated whether compound 1 affects the viability of TNBC cells. Three human TNBC cell lines, HCC-1806, HCC-1143, and HCC-38, were treated with doses of 1 ranging from 0.125 μM to 20 μM and their viability was assessed using the CellTiter-Glo assay, which measures intracellular ATP levels.
(§2) HCC-1806, HCC-1143, or HCC-38 cells were seeded at 3×10^3 cells/well in a 384-well plate and treated with compounds at the indicated concentrations. After 3 d treatment, the medium was aspirated and 20 μL/well of CellTiter-Glo reagent was added. Cell viability was measured with an EnVision multilabel plate reader. The IC50 value for cell viability of each compound was calculated with GraphPad Prism (La Jolla, Calif., US).

[2] = test system: HCC-38 cells; experiment: Cell viability, CellTiter-Glo, HCC-38; format: cell-based; conditions: Homo sapiens, HCC38, 72 h; Table 2; cancer cell viability, 3 d treatment; read-out: HCC-38 IC50
Method: as §1, §2

[3] = test system: XBP1 mRNA splicing (IRE1α pathway); experiment: XBP1 mRNA splicing by RT-PCR in HCC-1806 cells; format: cell-based, human; conditions: HCC-1806, 3d 10 μM, at 2~24 h (11% at 0 h)
Method: FIG. 3E is a graph showing XBP1 mRNA levels in HCC-1806 cells treated with tunicamycin or a 5-nitrofuran-2-amide derivative compound 3d. HCC-1806 cells were treated with compound 3d (10 μM) or tunicamycin (Tm, 1 μg/mL) for the indicated times. XBP1 mRNA levels were analyzed by RT-PCR and the products were resolved by agarose gel electrophoresis. The full-length (unspliced, XBP1u) and spliced (XBP1s) forms of XBP1 mRNA are indicated. GAPDH mRNA was used as an internal control.
The percentage of XBP1s relative to total XBP1 was calculated as: (XBP1s/[XBP1s+XBP1u])×100%. The data shown are representative of 3 independent studies.
The inventor next asked whether the IRE1α and ATF6 branches of the unfolded protein response were also activated by compound 3d treatment of TNBC cells. […] XBP1 mRNA splicing, as measured by XBP1s levels, increased only slightly in the first 24 h after compound 3d treatment of HCC-1806 cells (from 11% of total XBP1 at 0 h to 15˜20% at 2˜24 h). […] Next, it was determined whether compound 3d activates the ATF6 pathway by evaluating its effect on the activity of an ER stress response elements (ERSE)-Luc reporter stably established in HEK293 cell line. […]

[4] = test system: ATF4 protein; experiment: ATF4 protein by Western blotting; format: cell-based, human; conditions: 10 μM, indicated times
Method: FIG. 3D is an image showing ATF4 and p-EIF2α protein levels after treatment with a 5-nitrofuran-2-amide derivative compound 3d. Cells were treated with compound 3d (10 μM) for the indicated times, and ATF4 and p-eIF2a protein levels were analyzed by Western blotting. α-Tubulin was used as a loading control. The data shown are representative of 3 independent studies.
Prolonged or severe ER stress activates CHOP expression primarily through the PERK branch of the unfolded protein response, although the IRE1α and ATF6 branches also contribute.^5, 18 The 5-nitrofuran-2-amide derivatives could induce CHOP expression by acting as an ER stressor that activates all three branches of unfolded protein response or by preferentially activating a select branch of unfolded protein response. To distinguish between these possibilities, the inventor investigated which branches of the unfolded protein response were affected by compound 3d. Activation of the PERK pathway by ER stress leads to phosphorylation of eIF2α, followed by activation of the transcription and translation of the transcription factor ATF4, a 5′-upstream ORF-containing gene, and ATF4-mediated CHOP expression.^5, 22 To determine whether the PERK pathway is involved in compound 3d-mediated CHOP induction, ATF4 expression and eIF2a phosphorylation in HCC-1806 cells by qRT-PCR and Western blotting were analyzed. […]

IC50 [1]: 2800 nM
IC50 [2]: 2500 nM
SMILES: CC1CCN(c2ccc(NC(=O)c3ccc([N+](=O)[O-])o3)cc2)CC1 [Compound 3d]
XBP1s, percentage of total XBP1 [3]: 15˜20%
ATF4 expression, protein [4]: significantly increased ATF4 expression
